The term IC50 denotes the point on the concentration scale where inhibition reaches its midpoint.

One assay deals with human primary T-cells, IL-2 stimulated proliferation (JAK-1 and JAK-3 dependent; reported as JAK3 activity). Briefly: Human primary T-cell proliferation stimulated by IL-2 (Example 3). Format: cell-based. As to conditions: Homo sapiens, T-cell, tested under conditions described in Example 3 (IL-2 stimulated human primary T-cell proliferation); read-out: ability to inhibit JAK3 activity, IC50 range (Table V). Summed up:
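Peripheral-blood human T-cells pre-activated via TCR/CD28, IL-2-starved overnight, then cultured 72 h at 37 °C with compound in Yssel's medium containing IL-2 (80 U/mL in cell suspension). Proliferation read as viable-cell ATP by CellTiter-Glo luminescence; reduction versus control taken as JAK pathway inhibition.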
Take `Cc1cnc(Nc2ccc(C(N)=O)cc2)nc1Nc1ccc2oc(=O)n(COP(=O)(OC(C)(C)C)OC(C)(C)C)c2c1` [Compound I-146, di-tert-butyl (5-(2-(4-carbamoylphenylamino)-5-methylpyrimidin-4-ylamino)-2-oxobenzo[d]oxazol-3(2H)-yl)methyl phosphate]: the IC50 was in the range of 500 to 5000 nM. Still for that read-out and setting: with `COc1cc(Nc2ncc(C)c(Nc3ccc4oc(=O)[nH]c4c3)n2)cc(C(=O)N2CCCC2)c1` [Compound I-253, 5-(2-(3-methoxy-5-(pyrrolidine-1-carbonyl)phenylamino)-5-methylpyrimidin-4-ylamino)benzo[d]oxazol-2(3H)-one] the figure was more than 10000 nM.

Take `Cc1cnc(Nc2ccc(C(C)NCc3ccccc3)cc2)nc1Nc1ccc2oc(=O)[nH]c2c1` (stereo not shown) [Compound I-206, 5-(2-(4-(1-(benzylamino)ethyl)phenylamino)-5-methylpyrimidin-4-ylamino)benzo[d]oxazol-2(3H)-one]: the IC50 was less than 500 nM.

On to `Cc1cnc(Nc2ccc(C)c(C(F)(F)F)c2F)nc1Nc1ccc2oc(=O)[nH]c2c1` [Compound I-532, 5-(2-(2-fluoro-4-methyl-3-(trifluoromethyl)phenylamino)-5-methylpyrimidin-4-ylamino)benzo[d]oxazol-2(3H)-one], for which the IC50 was less than 500 nM.

Consider `Cc1cnc(Nc2ccc3c(c2)CN(CC(C)C)C3)nc1Nc1ccc2oc(=O)[nH]c2c1` [III-8, N4-(benzo[d]oxazol-2(3H)-on-5-yl)-N2-(2-isobutylisoindolin-5-yl)-5-methylpyrimidine-2,4-diamine], for which the IC50 was less than 500 nM. Consider `Cc1cnc(Nc2cccc(C#N)c2)nc1Nc1ccc2oc(=O)[nH]c2c1` [Compound I-26, N4-(benzo[d]oxazol-2(3H)-on-5-yl)-N2-(3-cyanophenyl)-5-methylpyrimidine-2,4-diamine], for which the IC50 is less than 500 nM. Still for that read-out and setting: for `CCN1Cc2ccc(Nc3ncc(C)c(Nc4ccc5oc(=O)[nH]c5c4)n3)cc2C1` [III-5, N4-(benzo[d]oxazol-2(3H)-on-5-yl)-N2-(2-ethylisoindolin-5-yl)-5-methylpyrimidine-2,4-diamine] the value was less than 500 nM.

The assay is the same for the next values; noted with them: tested under conditions described in Example 3 (IL-2 stimulated human primary T-cell proliferation); read-out: ability to inhibit JAK3 activity, IC50 range (Table V).
Regarding `COc1cc(Nc2ncc(C)c(Nc3ccc4oc(=O)[nH]c4c3)n2)cc(OC)c1OC` [Compound I-119, N4-(benzo[d]oxazol-2(3H)-on-5-yl)-N2-(3,4,5-trimethoxy)phenyl-5-methylpyrimidine-2,4-diamine], the IC50 was less than 500 nM. On the same count and under the same terms, for `Cc1cnc(Nc2cccc(OC(C)(C)C(N)=O)c2)nc1Nc1ccc2oc(=O)[nH]c2c1` [Compound I-335, N2-[3-(1-aminocarbonyl-1-methyl)ethoxy]phenyl-5-methyl-N4-(2-oxo-2,3-dihydro-1,3-benzoxazol-5-yl)-2,4-pyrimidinediamine] the value was less than 500 nM; for `CCOP(=O)(OCC)N1CCN(c2ccc(Nc3ncc(C)c(Nc4ccc5oc(=O)[nH]c5c4)n3)cn2)C[C@H]1C` [II-58, (R)-diethyl 2-methyl-4-(5-(5-methyl-4-(2-oxo-2,3-dihydrobenzo[d]oxazol-5-ylamino)pyrimidin-2-ylamino)pyridin-2-yl)piperazin-1-ylphosphonate], less than 500 nM. Take `Cc1cnc(Nc2ccc(S(C)(=O)=O)cc2)nc1Nc1ccc2oc(=O)n(C)c2c1` [Compound I-70, N2-((4-methylsulfonyl)phenyl)-N4-(3-methyl-2-oxo-2,3-dihydrobenzo[d]oxazol-5-yl)-5-methylpyrimidine-2,4-diamine]: the IC50 was less than 500 nM. Same read-out and setting: with `Cc1cnc(Nc2cc(F)c(N3CCN(C)CC3)c(F)c2)nc1Nc1ccc2oc(=O)[nH]c2c1` [Compound I-282, N2-[3,5-difluoro-4-(4-methylpiperazino)]phenyl-5-methyl-N4-(2-oxo-2,3-dihydro-1,3-benzoxazol-5-yl)-2,4-pyrimidinediamine] the figure was less than 500 nM. Take `COc1cc(Nc2ncc(C)c(Nc3ccc4oc(=O)[nH]c4c3)n2)cc(OC)c1` [Compound I-280, N2-(3,5-dimethoxy)phenyl-5-methyl-N4-(2-oxo-2,3-dihydro-1,3-benzoxazol-5-yl)-2,4-pyrimidinediamine]: the IC50 is less than 500 nM.

The values above are taken from US10005767B2, “Compositions and methods for inhibition of the JAK pathway” (Rigel Pharmaceuticals, Inc., priority 2009, dated 2018).
